Where “and” joins values, the source holds several entries; their conditions need not be identical. Equal values may be shown once.
Details: for Normal melting temperature: DTA

c1ccc2cc3cc4ccccc4cc3cc2c1 [2,3-benzanthracene]
Crystal 2
Details | vapor or sublimation pressure [kPa]
399 K | 1.46e-05
404.4 K | 2.1e-05
405.6 K | 2.55e-05
409.5 K | 3.39e-05
410.6 K | 4.22e-05
414.6 K | 5.42e-05
415.8 K | 6.67e-05
416.6 K | 6.39e-05
418.6 K | 7.84e-05
419.6 K | 8.46e-05
420.8 K | 0.0001032
424.7 K | 0.0001278
430.1 K | 0.0002146

c1ccc2cc3ccccc3cc2c1 [anthracene]
Crystal, Calculated from knudsen effusion weight loss
Details | vapor or sublimation pressure
319.6 K | 1.3e-05 kPa and 1.29e-05 kPa
323.9 K | 2.14e-05 kPa
326.8 K | 3.04e-05 kPa
326.9 K | 3e-05 kPa
331.7 K | 5.29e-05 kPa
332.1 K | 5.32e-05 kPa
332.2 K | 5.41e-05 kPa
334 K | 6.51e-05 kPa
334.2 K | 6.59e-05 kPa
337 K | 9.16e-05 kPa
339.4 K | 0.0001131 kPa
342 K | 0.0001487 kPa
349.7 K | 0.0003165 kPa and 0.0003121 kPa
354.8 K | 0.0005077 kPa

CC[C@H](CC[C@@H](C)[C@H]1CC[C@H]2[C@@H]3CC=C4C[C@@H](O)CC[C@]4(C)[C@H]3CC[C@]12C)C(C)C [β-sitosterol]
Crystal, Calculated from knudsen effusion weight loss
Details | vapor or sublimation pressure [kPa]
389.9 K | 9.4e-06
392.4 K | 1.27e-05
395.2 K | 1.72e-05
397.7 K | 2.23e-05
400.3 K | 2.99e-05
405.6 K | 5.2e-05
410.7 K | 9.02e-05

Details | Normal melting temperature [°C]
Crystal | 138

CC(C)[C@@H](C)/C=C/[C@@H](C)[C@H]1CC[C@H]2C3=CC=C4C[C@@H](O)CC[C@]4(C)[C@H]3CC[C@]12C [(22E)-ergosta-5,7,22-trien-3β-ol]
Crystal, Calculated from knudsen effusion weight loss
Details | vapor or sublimation pressure [kPa]
381.3 K | 3.1e-06
383.8 K | 4.4e-06
386.5 K | 5.6e-06
394.4 K | 1.42e-05
399.6 K | 2.6e-05
402.3 K | 3.54e-05
404.6 K | 4.47e-05
407.2 K | 5.91e-05
412.3 K | 0.0001027

Details | Normal melting temperature [°C]
Crystal | 158

CC(C)CCC[C@@H](C)[C@H]1CC[C@H]2[C@@H]3CC=C4C[C@@H](O)CC[C@]4(C)[C@H]3CC[C@]12C [.DELTA.5-cholesten-3β-ol]
Crystal, Calculated from knudsen effusion weight loss
Details | vapor or sublimation pressure [kPa]
386.6 K | 1.18e-05
392 K | 2.13e-05
397.3 K | 3.95e-05
403.1 K | 7.14e-05
408.2 K | 0.0001251
413.8 K | 0.0002146

Details | Normal melting temperature [°C]
Crystal | 148

CC[C@H](/C=C/[C@@H](C)[C@H]1CC[C@H]2[C@@H]3CC=C4C[C@@H](O)CC[C@]4(C)[C@H]3CC[C@]12C)C(C)C [(22E)-stigmasta-5,22-dien-3β-ol]
Crystal, Calculated from knudsen effusion weight loss
Details | vapor or sublimation pressure [kPa]
390.9 K | 3.9e-06
392 K | 4.6e-06
393.5 K | 5.6e-06
396.1 K | 8.2e-06
397.2 K | 9.4e-06
398.7 K | 1.15e-05
401.2 K | 1.61e-05
403.9 K | 2.2e-05
406.3 K | 2.96e-05
408.9 K | 4.11e-05
411.5 K | 5.38e-05
414 K | 7.23e-05
416.6 K | 9.54e-05

Details | Normal melting temperature [°C]
Crystal | 162
